# Results as given in patent US4593104A, “2-halo-N-(azole-1-yl-methyl)-substituted acetanilides” (BASF Aktiengesellschaft, priority 1976, dated 1986).
# Tests used:
# Test in all cases: preemergence treatment in the greenhouse, % damage
# Gossyp. hirs. = type: in vivo, Gosspyium hirsutum
# Description: The vessels employed were plastic flowerpots having a volume of 300 cm^3; the substrate was a sandy loam containing about 1.5% humus. The seeds of the test plants (see Table 1) were sown shallow, and separated according to species. In the case of Cyperus esculentus, pregerminated tubers were planted. In the preemergence treatment, the active ingredients were then immediately applied to the surface of the soil. They were suspended or emulsified in water as the vehicle, and sprayed through atomizing nozzles. After the agents had been applied, the vessels were lightly sprinkler-irrigated to set germination and growth going, and to activate the chemical agents. The vessels were then covered with transparent plastic hoods until the plants had taken root. This cover ensured uniform germination of the test plants (to the extent that this was not impaired by the chemicals), and prevented readily volatile substances from evaporating.
# For postemergence treatment, the plants were first grown to a height of from 3 to 10 cm, depending on their habit, before treated. Hoods were not placed on the pots. The experiments were set up in the greenhouse, hotter areas (25° to 40° C.) being preferred for heat-loving species, and 15° to 30° C. for plants from moderate climates. The experiments were carried out for from 4 to 6 weeks. During this period the plants were tended and their reaction to the various treatments was assessed. The following tables contain the substances investigated, the application rates in kg/ha of active ingredient, and the test plant species. Assessments were made on a 0 to 100 scale, 0 denoting no damage or normal emergence, and 100 denoting no emergence or complete destruction of at least the visible plant parts.
# Glyc. max = type: in vivo, Glycine max
# In short: (§1)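 Ratings, on a 0 to 100 scale, show injury where 100 means no emergence or complete destruction of visible parts. Compounds in water were sprayed either onto freshly sown soil, which was then watered and hooded, or onto plants 3–10 cm tall. Observation lasted 4–6 weeks.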
# Amar. retro. = type: in vivo
# In short: as §1
# Sida spin. = type: in vivo
# In short: as §1
# Panic. virg. = type: in vivo
# In short: as §1
# Cenchr. ech. = type: in vivo
# In short: as §1
# Lept. spp. = type: in vivo
# In short: as §1
# Solanum nigrum = type: in vivo
# In short: as §1
# Echin. c.g. = type: in vivo
# In short: as §1
# Cyp. diff. = type: in vivo
# In short: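 Sow shallow in sandy loam, spray actives (water vehicle) on soil at once for preemergence, irrigate, hood until rooting; or grow to 3–10 cm and spray unhooded for postemergence. Keep 4–6 weeks at 15–40 °C by species, then score damage 0–100.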
# Ipom. spp. = type: in vivo
# In short: as §1
smiles,measurement,setting,value
"CCc1cccc(CC)c1N(COC)C(=O)CCl [bekannt, reference compound]",% damage,Gossyp. hirs.; 0.25 kg/ha,0%
same,% damage,Gossyp. hirs.; 0.5 kg/ha,6%
same,% damage,Gossyp. hirs.; 1.0 kg/ha,20%
same,% damage,Gossyp. hirs.; 2.0 kg/ha,45%
same,% damage,Glyc. max; 0.25 kg/ha,0%
same,% damage,Glyc. max; 0.5 kg/ha,0%
same,% damage,Glyc. max; 1.0 kg/ha,0%
same,% damage,Glyc. max; 2.0 kg/ha,0%
same,% damage,Amar. retro.; 0.25 kg/ha,68%
same,% damage,Amar. retro.; 0.5 kg/ha,81%
same,% damage,Amar. retro.; 1.0 kg/ha,88%
same,% damage,Amar. retro.; 2.0 kg/ha,92%
same,% damage,Sida spin.; 1.0 kg/ha,10%
same,% damage,Sida spin.; 2.0 kg/ha,70%
same,% damage,Panic. virg.; 0.25 kg/ha,30%
same,% damage,Panic. virg.; 0.5 kg/ha,45%
same,% damage,Panic. virg.; 1.0 kg/ha,92%
same,% damage,Panic. virg.; 2.0 kg/ha,100%
same,% damage,Cenchr. ech.; 0.25 kg/ha,92%
same,% damage,Cenchr. ech.; 0.5 kg/ha,95%
same,% damage,Cenchr. ech.; 1.0 kg/ha,100%
same,% damage,Cenchr. ech.; 2.0 kg/ha,100%
same,% damage,Lept. spp.; 0.25 kg/ha,100%
same,% damage,Lept. spp.; 0.5 kg/ha,100%
same,% damage,Lept. spp.; 1.0 kg/ha,100%
same,% damage,Lept. spp.; 2.0 kg/ha,100%
same,% damage,Solanum nigrum; 0.25 kg/ha,50%
same,% damage,Solanum nigrum; 0.5 kg/ha,73%
same,% damage,Solanum nigrum; 1.0 kg/ha,90%
same,% damage,Solanum nigrum; 2.0 kg/ha,90%
same,% damage,Echin. c.g.; 0.25 kg/ha,45%
same,% damage,Echin. c.g.; 0.5 kg/ha,75%
same,% damage,Echin. c.g.; 1.0 kg/ha,90%
same,% damage,Echin. c.g.; 2.0 kg/ha,95%
same,% damage,Cyp. diff.; 0.25 kg/ha,65%
same,% damage,Cyp. diff.; 0.5 kg/ha,70%
same,% damage,Cyp. diff.; 1.0 kg/ha,78%
same,% damage,Cyp. diff.; 2.0 kg/ha,100%
same,% damage,Ipom. spp.; 1.0 kg/ha,20%
same,% damage,Ipom. spp.; 2.0 kg/ha,30%
